A value given as a limit tells only on which side of the number the result lay.

The target of the test is T1, 17-beta-hydroxysteroid dehydrogenase type 2 (Homo sapiens, UniProt P37059).
T1 sequence (P37059 whole entry): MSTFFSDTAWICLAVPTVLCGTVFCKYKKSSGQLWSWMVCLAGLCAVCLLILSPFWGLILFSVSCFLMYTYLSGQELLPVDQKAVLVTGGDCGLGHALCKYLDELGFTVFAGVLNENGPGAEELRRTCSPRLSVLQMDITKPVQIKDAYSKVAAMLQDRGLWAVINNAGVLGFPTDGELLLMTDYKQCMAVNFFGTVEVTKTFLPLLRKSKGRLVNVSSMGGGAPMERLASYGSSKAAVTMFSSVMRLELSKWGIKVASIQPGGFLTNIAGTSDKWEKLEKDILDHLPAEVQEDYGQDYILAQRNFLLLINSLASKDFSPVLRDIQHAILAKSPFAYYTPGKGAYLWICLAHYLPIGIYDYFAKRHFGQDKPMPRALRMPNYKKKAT
Description: Inhibitory concentration against 17 beta hydroxysteroid dehydrogenase type 2 (type II 17-beta-HSD II).

What is called IC50 is the midpoint of a concentration-inhibition curve. Lower therefore signals greater potency. For the compound `CN1C(=S)C[C@H](c2ccccc2)[C@@H]1[C@@H](O)c1cccs1`, the IC50 is over 10000 nM.

Regarding `Cc1ccc([C@H](O)[C@H]2[C@@H](c3ccccc3)CC(=O)N2C)cc1`, the IC50 is 1820 nM.

In turn, `CN1C(=O)C[C@H](c2ccccc2)[C@@H]1[C@@H](O)c1ccc(Cl)cc1` had an IC50 of 1960 nM.

For the compound `CN1C(=O)C[C@H](c2ccccc2)[C@@H]1[C@@H](O)c1ccc(-c2ccc(F)cc2)cc1`, it took 1260 nM to reach half-maximal inhibition (IC50).

On to `CN1C(=O)C[C@H](c2ccccc2)[C@@H]1[C@H](O)c1cccc(Cl)c1`, for which the IC50 is over 10000 nM.

`COc1ccc([C@H](O)[C@H]2[C@@H](c3ccccc3)CC(=O)N2C)cc1` showed an IC50 of 1230 nM.

As for `COc1cccc(C#C[C@H](O)[C@H]2[C@@H](c3ccccc3)CC(=O)N2C)c1`, the IC50 came to 1090 nM.

The compound `CN1C(=O)C[C@H](c2ccccc2)[C@@H]1[C@@H](O)c1cccc(C(F)(F)F)c1` came in with an IC50 of 880 nM.

Turning to `CN1C(=O)C[C@H](c2ccccc2)[C@@H]1[C@@H](O)C#Cc1ccccc1`, the IC50 is 430 nM.

`CN1C(=O)C[C@H](c2ccccc2)[C@@H]1[C@@H](O)c1ccccc1`: the IC50 turned out to be 5000 nM. Compared with the last compound, the IC50 is about 12-fold higher.

As for `CC(=O)Nc1ccc([C@H]2CC(=O)N(C)[C@H]2[C@@H](O)c2ccc(-c3ccccc3)s2)cc1`, the IC50 was over 10000 nM.

Turning to `CN1C(=O)C[C@H](c2ccccc2)[C@@H]1[C@@H](O)C#Cc1ccc(F)cc1`, the midpoint of inhibition, the IC50, lay at 480 nM. This lies in the sub-micromolar range.

The compound `CN1C(=O)C[C@H](c2ccccc2)[C@@H]1[C@@H](O)c1csc2ccccc12` yielded an IC50 of 2660 nM. Compared with the last compound, the IC50 is about 5.5-fold higher.

Turning to `COc1ccc([C@H]2CC(=O)N(C)[C@H]2[C@@H](O)c2ccc(-c3ccccc3)s2)cc1`, 890 nM corresponded to half-maximal inhibition (IC50).

The compound `CN1C(=O)C[C@H](c2ccccc2)[C@@H]1[C@@H](O)c1coc2ccccc12` had an IC50 of 1160 nM. The IC50 values of the last two compounds are within 1.5-fold of each other.

As for `CN1C(=O)C[C@H](c2ccccc2)[C@@H]1[C@@H](O)c1ccc(-c2ccccc2)o1`, the IC50 was 3240 nM.

As to `CN1C(=O)C[C@H](c2ccccc2)[C@@H]1C(=O)c1cccc(Cl)c1`, the IC50 was over 10000 nM.

Regarding `CN1C(=O)C[C@H](c2ccccc2)[C@@H]1[C@@H](O)CCc1ccccc1`, 1830 nM corresponded to half-maximal inhibition (IC50).

Consider `CN1C(=O)C[C@H](c2ccc(O)cc2)[C@@H]1[C@@H](O)c1ccc(-c2ccccc2)s1`, for which 220 nM corresponded to half-maximal inhibition (IC50).

`CN1C(=O)C[C@H](c2ccccc2)[C@@H]1[C@@H](O)c1ccc2c(c1)OCO2` came in with an IC50 of 960 nM.

In turn, `CN1C(=O)C[C@H](c2ccccc2)[C@@H]1[C@@H](O)c1cccc(-c2ccccc2)c1` gave an IC50 of 420 nM.

Compound `CC(=O)O[C@@H](c1cccs1)[C@H]1[C@@H](c2ccccc2)CC(=O)N1C` returned an IC50 of 1370 nM.

Compound `CN1C(=O)C[C@H](c2ccccc2)[C@@H]1[C@@H](O)C#Cc1ccccc1Cl` returned an IC50 of 300 nM.

Regarding `CN1C(=O)C[C@H](c2ccccc2)[C@@H]1[C@@H](O)c1cccc(-c2ccc(F)cc2)c1`, the IC50 came to 2780 nM.

For `CN1C(=O)C[C@H](c2ccc(NS(C)(=O)=O)cc2)[C@@H]1[C@@H](O)c1ccc(-c2ccccc2)s1`, the IC50 is over 10000 nM.

Consider `CN1C(=O)C[C@H](c2ccccc2)[C@@H]1[C@@H](O)c1cccs1`, for which the IC50 amounted to 400 nM.

With `CN1C(=O)C[C@H](c2ccccc2)[C@@H]1C(F)c1cccs1` (some centres not stated), the IC50 amounted to 2980 nM.

Regarding `CN(C)c1ccc([C@H]2CC(=O)N(C)[C@H]2[C@@H](O)c2ccc(-c3ccccc3)s2)cc1`, it took 2430 nM to reach half-maximal inhibition (IC50).

`CNc1ccc([C@H]2CC(=O)N(C)[C@H]2[C@@H](O)c2ccc(-c3ccccc3)s2)cc1` came in with an IC50 of 1670 nM.

`CN1C(=O)C[C@H](c2ccc([N+](=O)[O-])cc2)[C@@H]1[C@@H](O)c1ccc(-c2ccccc2)s1` had an IC50 of over 10000 nM.

`CN1C(=O)C[C@H](c2ccccc2)[C@@H]1[C@@H](O)c1cccc(Cl)c1` had an IC50 of 700 nM.

As to `CN1C(=O)C[C@H](c2ccccc2)[C@@H]1[C@@H](O)c1ccco1`, inhibition was half-maximal at 3180 nM (IC50).

Turning to `CN1C(=O)C[C@H](c2ccccc2)[C@@H]1[C@@H](O)C#Cc1cccc(N)c1`, half-maximal inhibition (IC50) was put at 370 nM.

Compound `CN1C(=O)C[C@H](c2ccccc2)[C@@H]1[C@@H](O)C(C)(C)C` returned a concentration for half-maximal inhibition (IC50) of over 10000 nM.

As to `Cc1cccc([C@H](O)[C@H]2[C@@H](c3ccccc3)CC(=O)N2C)c1`, the IC50 turned out to be 1520 nM.

In turn, `CN1C(=O)C[C@H](c2ccccc2)[C@@H]1[C@@H](O)c1ccc(-c2ccc(O)cc2)cc1` registered an IC50 of 1130 nM.

The compound `O=C1C[C@H](c2ccccc2)[C@H]([C@@H](O)c2cccs2)N1Cc1ccccc1` registered an IC50 of 4180 nM.

As to `CN1C(=O)C[C@H](c2ccccc2)[C@@H]1[C@@H](O)c1cc2ccccc2s1`, inhibition was half-maximal at 590 nM (IC50).

`CN1C(=O)C[C@H](c2ccc(N)cc2)[C@@H]1[C@@H](O)c1ccc(-c2ccccc2)s1` returned an IC50 of 190 nM. This IC50 lies about 3.1-fold lower than the previous one.

Regarding `CN1C(=O)C[C@H](c2ccccc2)[C@@H]1[C@@H](O)c1ccc(-c2ccccc2)cc1`, 1020 nM corresponded to half-maximal inhibition (IC50).

In turn, `CN1C(=O)C[C@H](c2ccccc2)[C@@H]1[C@@H](O)C#Cc1ccccn1` showed an IC50 of 1500 nM. The IC50 values of the last two compounds are within 1.5-fold of each other.

`CN1C(=O)C[C@H](c2ccccc2)[C@@H]1[C@@H](OCCO)c1cccs1`: the IC50 was over 10000 nM.

`CN1C(=O)C[C@H](c2ccccc2)[C@@H]1[C@@H](O)C#Cc1ccccc1F` came in with an IC50 of 320 nM.

Turning to `CO[C@@H](c1cccs1)[C@H]1[C@@H](c2ccccc2)CC(=O)N1C`, the IC50 amounted to 3910 nM.

Compound `CO[C@@H](c1cccc(Cl)c1)[C@H]1[C@@H](c2ccccc2)CC(=O)N1C` returned an IC50 of 900 nM.

`CN1C(=O)C[C@H](c2ccccc2)[C@@H]1[C@@H](O)CCc1ccc(F)cc1` displayed a concentration for half-maximal inhibition (IC50) of 1530 nM.

Consider `Cc1ccc([C@H](O)[C@H]2[C@@H](c3ccccc3)CC(=O)N2C)s1`, for which the IC50 amounted to 560 nM.

Take `CN1C(=O)C[C@H](c2ccccc2)[C@@H]1Cc1cccc(Cl)c1`: it took 2180 nM to reach half-maximal inhibition (IC50).

`CN1C(=O)C[C@H](c2ccccc2)[C@@H]1[C@@H](O)c1cc2ccccc2[nH]1` showed an IC50 of over 10000 nM.

The compound `CN1C(=O)C[C@H](c2ccccc2)[C@@H]1[C@@H](O)C#Cc1cccc(O)c1` showed an IC50 of 1760 nM.

On to `CN1C(=O)C[C@H](c2ccccc2)[C@@H]1[C@@H](O)/C=C/c1ccc(F)cc1`, for which the half-maximal inhibitory concentration (IC50) was found to be 1400 nM.

As to `COc1cccc([C@H](O)[C@H]2[C@@H](c3ccccc3)CC(=O)N2C)c1`, half-maximal inhibition (IC50) required 810 nM. Against the preceding compound, the IC50 is about 1.7-fold lower.

For `CN1C(=O)C[C@H](c2ccccc2)[C@@H]1[C@@H](O)Cc1cccc(Cl)c1`, the IC50 was found to be 2390 nM. This IC50 lies about 3-fold higher than the previous one.

`CN1C(=O)C[C@H](c2ccccc2)[C@@H]1[C@@H](O)c1ccc(Cl)c(Cl)c1` yielded an IC50 of 440 nM.

`CN1C(=O)C[C@H](c2ccccc2)[C@@H]1[C@@H](O)c1ccc(Br)o1` showed an IC50 of 1270 nM. Compared with the last compound, the IC50 is about 2.9-fold higher.

`Cc1ccc(C#C[C@H](O)[C@H]2[C@@H](c3ccccc3)CC(=O)N2C)cc1` displayed an IC50 of 800 nM.

In the case of `CN(C)c1ccc([C@H](O)[C@H]2[C@@H](c3ccccc3)CC(=O)N2C)cc1`, half-maximal inhibition (IC50) required 1650 nM.

Compound `CN1C(=O)C[C@H](c2ccccc2)[C@@H]1[C@@H](O)c1ccc(Br)s1` returned an IC50 of 1200 nM. This IC50 and that of the compound before are within 1.5-fold of each other.

Turning to `O=C1C[C@H](c2ccccc2)[C@H]([C@@H](O)c2cccs2)N1`, the IC50 was over 10000 nM.

The compound `CN1C(=O)C[C@H](c2ccccc2)[C@@H]1C(=O)c1cccs1` yielded an IC50 of over 10000 nM.

`CN1CC[C@H](c2ccccc2)[C@@H]1[C@@H](O)c1cccs1`: the IC50 is over 10000 nM.

On to `CN1C(=O)C[C@H](c2ccccc2)[C@@H]1[C@@H](O)c1ccc(-c2ccccc2)s1`, for which it took 100 nM to reach half-maximal inhibition (IC50).

Source of the values: ChEMBL document CHEMBL1139623, “4,5-Disubstituted cis-pyrrolidinones as inhibitors of type II 17beta-hydroxysteroid dehydrogenase. Part 2. SAR” (Bioorg Med Chem Lett, 2005).
